pIC50: −log10 of the molar value.
System: congestive heart failure in Dahl salt-sensitive rats
Assay: not given
Conditions: cited from earlier work

SMILES | ventricular hypertrophy, fibrosis and function
C[C@@H](N)[C@H]1CC[C@H](C(=O)Nc2ccncc2)CC1 [Example Y-27632, Y-27632] | improve

System: rat stroke model
Assay: not given
Conditions: cited from earlier work

SMILES | infarct size and neurologic deficit
O=S(=O)(c1cccc2cnccc12)N1CCCNCC1 [fasudil] | reduce both the infarct size and neurologic deficit

System: neointimal formation
Assay: not given
Conditions: rats; cited from earlier work

SMILES | neointimal formation
C[C@@H](N)[C@H]1CC[C@H](C(=O)Nc2ccncc2)CC1 [Example Y-27632, Y-27632] | inhibited neointimal formation

System: spontaneously hypertensive rat, renal hypertensive rat and deoxycortisone acetate salt hypertensive rat models
Assay: not given
Conditions: control rats; cited from earlier work

SMILES | blood pressure
C[C@@H](N)[C@H]1CC[C@H](C(=O)Nc2ccncc2)CC1 [Example Y-27632, Y-27632] | only a minor effect

Same assay, conditions: three rat models of hypertension; cited from earlier work

SMILES | blood pressure
C[C@@H](N)[C@H]1CC[C@H](C(=O)Nc2ccncc2)CC1 [Example Y-27632, Y-27632] | significantly decrease blood pressure

Target: ROCK2 (Homo sapiens (Human), UniProt O75116)
Assay: ROCK2 assay (peptide phosphorylation, LABCHIP 3000 Reader)
Type: biochemical
Conditions: 5 μM ATP, 1.5 μM peptide substrate
How it was run: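 Human ROCK2 reaction in 20 mM HEPES pH 7.5, 20 mM MgCl2, 0.015% Brij-35, 4 mM DTT, with 5 μM ATP and 1.5 μM FITC-labelled peptide, DMSO <2%. Stopped with EDTA; phosphorylated and unphosphorylated peptide separated by microfluidic mobility shift. IC50 from dose-response curve fit.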

ROCK2, sequence (O75116 whole entry, species assumed): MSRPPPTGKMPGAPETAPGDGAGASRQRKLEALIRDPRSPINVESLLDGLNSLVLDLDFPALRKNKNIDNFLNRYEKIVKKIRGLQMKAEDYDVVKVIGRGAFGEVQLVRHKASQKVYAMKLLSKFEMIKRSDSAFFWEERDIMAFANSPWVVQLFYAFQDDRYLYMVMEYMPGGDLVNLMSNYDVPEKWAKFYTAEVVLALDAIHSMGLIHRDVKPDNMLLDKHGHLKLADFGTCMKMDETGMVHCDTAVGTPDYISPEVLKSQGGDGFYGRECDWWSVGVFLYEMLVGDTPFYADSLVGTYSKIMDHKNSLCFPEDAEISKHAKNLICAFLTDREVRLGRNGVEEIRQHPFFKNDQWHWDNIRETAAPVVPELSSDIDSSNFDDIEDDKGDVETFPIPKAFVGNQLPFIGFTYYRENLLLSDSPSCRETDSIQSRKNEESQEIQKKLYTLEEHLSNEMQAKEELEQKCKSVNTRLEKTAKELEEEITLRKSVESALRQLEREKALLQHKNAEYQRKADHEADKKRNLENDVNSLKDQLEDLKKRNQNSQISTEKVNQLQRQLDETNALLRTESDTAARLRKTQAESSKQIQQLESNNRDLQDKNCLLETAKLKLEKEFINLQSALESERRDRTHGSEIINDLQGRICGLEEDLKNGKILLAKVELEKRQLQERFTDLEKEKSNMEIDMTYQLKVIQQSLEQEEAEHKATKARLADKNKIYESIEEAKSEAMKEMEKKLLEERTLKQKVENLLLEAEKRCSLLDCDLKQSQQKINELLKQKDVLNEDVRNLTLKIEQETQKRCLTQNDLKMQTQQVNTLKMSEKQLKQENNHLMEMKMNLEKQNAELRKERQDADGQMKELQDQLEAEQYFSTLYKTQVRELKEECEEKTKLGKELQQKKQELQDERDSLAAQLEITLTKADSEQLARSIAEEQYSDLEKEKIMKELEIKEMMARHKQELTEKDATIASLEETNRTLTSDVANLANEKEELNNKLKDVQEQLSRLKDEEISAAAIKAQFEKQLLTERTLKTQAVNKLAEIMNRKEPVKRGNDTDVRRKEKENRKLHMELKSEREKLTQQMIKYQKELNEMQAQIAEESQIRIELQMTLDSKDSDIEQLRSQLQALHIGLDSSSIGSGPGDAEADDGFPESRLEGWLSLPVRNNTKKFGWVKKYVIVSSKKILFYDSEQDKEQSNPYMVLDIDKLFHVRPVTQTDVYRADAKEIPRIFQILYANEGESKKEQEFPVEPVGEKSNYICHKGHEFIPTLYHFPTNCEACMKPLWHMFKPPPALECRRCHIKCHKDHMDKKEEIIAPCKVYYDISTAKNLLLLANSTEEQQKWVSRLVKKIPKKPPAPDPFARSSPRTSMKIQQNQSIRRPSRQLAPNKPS

pIC50 | SMILES
> 8.30 | COc1cccc(Cn2cnn(-c3ccc(-c4ccnc5[nH]ccc45)cc3)c2=O)c1 [Example 169, 1-(4-(1H-pyrrolo[2,3-b]pyridin-4-yl)phenyl)-4-(3-methoxybenzyl)-1H-1,2,4-triazol-5(4H)-one]
7.30 to 8.30 | COc1cccc(Cn2cnn(-c3ccc(-c4ccnc(N)n4)cc3)c2=O)c1 [Example 170, 1-(4-(2-aminopyrimidin-4-yl)phenyl)-4-(3-methoxybenzyl)-1H-1,2,4-triazol-5(4H)-one]
7.30 to 8.30 | COc1cccc(Cn2nnn(-c3ccc(-c4cn[nH]c4)cc3)c2=O)c1 [Example 172, 1-(4-(1H-pyrazol-4-yl)phenyl)-4-(3-methoxybenzyl)-1H-tetrazol-5(4H)-one]
6.60 to 7.30 | O=c1n(Cc2cccc(F)c2)nnn1-c1ccc(-c2cn[nH]c2)cc1 [Example 173, 1-(4-(1H-pyrazol-4-yl)phenyl)-4-(3-fluorobenzyl)-1H-tetrazol-5(4H)-one]
6.60 to 7.30 | O=c1n(Cc2cc(F)ccc2F)nnn1-c1ccc(-c2cn[nH]c2)cc1 [Example 174, 1-(4-(1H-pyrazol-4-yl)phenyl)-4-(2,5-difluorobenzyl)-1H-tetrazol-5(4H)-one]
7.30 to 8.30 | COc1cc(F)cc(Cn2nnn(-c3ccc(-c4cn[nH]c4)cc3)c2=O)c1 [Example 175, 1-(4-(1H-pyrazol-4-yl)phenyl)-4-(3-fluoro-5-methoxybenzyl)-1H-tetrazol-5(4H)-one]
7.30 to 8.30 | CC(c1ccccc1)n1nnn(-c2ccc(-c3cn[nH]c3)cc2)c1=O (stereo not shown) [Example 176, 1-(4-(1H-pyrazol-4-yl)phenyl)-4-(1-phenylethyl)-1H-tetrazol-5(4H)-one]
6.60 to 7.30 | O=c1n(Cc2ccccc2Cl)nnn1-c1ccc(-c2cn[nH]c2)cc1 [Example 177, 1-(4-(1H-pyrazol-4-yl)phenyl)-4-(2-chlorobenzyl)-1H-tetrazol-5(4H)-one]
7.30 to 8.30 | O=c1n(Cc2ccccc2)nnn1-c1ccc(-c2cn[nH]c2)cc1 [Example 178, 1-(4-(1H-pyrazol-4-yl)phenyl)-4-benzyl-1H-tetrazol-5(4H)-one]
6.60 to 7.30 | COc1cc(-n2nnn(Cc3ccccc3)c2=O)ccc1-c1cn[nH]c1 [Example 179, 1-benzyl-4-(3-methoxy-4-(1H-pyrazol-4-yl)phenyl)-1H-tetrazol-5(4H)-one]
7.30 to 8.30 | COc1cc(-n2nnn(Cc3cccc(F)c3)c2=O)ccc1-c1cn[nH]c1 [Example 180, 1-(3-fluorobenzyl)-4-(3-methoxy-4-(1H-pyrazol-4-yl)phenyl)-1H-tetrazol-5(4H)-one]
6.60 to 7.30 | COc1cc(-n2nnn(Cc3cc(F)ccc3F)c2=O)ccc1-c1cn[nH]c1 [Example 181, 1-(2,5-difluorobenzyl)-4-(3-methoxy-4-(1H-pyrazol-4-yl)phenyl)-1H-tetrazol-5(4H)-one]
7.30 to 8.30 | COc1cc(F)cc(Cn2nnn(-c3ccc(-c4cn[nH]c4)c(OC)c3)c2=O)c1 [Example 182, 1-(3-fluoro-5-methoxybenzyl)-4-(3-methoxy-4-(1H-pyrazol-4-yl)phenyl)-1H-tetrazol-5(4H)-one]
6.60 to 7.30 | COc1cc(-n2nnn(Cc3ccccc3F)c2=O)ccc1-c1cn[nH]c1 [Example 183, 1-(2-fluorobenzyl)-4-(3-methoxy-4-(1H-pyrazol-4-yl)phenyl)-1H-tetrazol-5(4H)-one]
6.60 to 7.30 | COc1cc(-n2nnn(Cc3c(F)cccc3F)c2=O)ccc1-c1cn[nH]c1 [Example 184, 1-(2,6-difluorobenzyl)-4-(3-methoxy-4-(1H-pyrazol-4-yl)phenyl)-1H-tetrazol-5(4H)-one]
5.70 to 6.60 | COc1cc(-n2nnn(Cc3cccc(C#N)c3)c2=O)ccc1-c1cn[nH]c1 [Example 185, 3-((4-(3-methoxy-4-(1H-pyrazol-4-yl)phenyl)-5-oxo-4,5-dihydro-1H-tetrazol-1-yl)methyl)benzonitrile]
5.70 to 6.60 | COc1cc(-n2nnn(Cc3ccc(F)cc3)c2=O)ccc1-c1cn[nH]c1 [Example 186, 1-(4-fluorobenzyl)-4-(3-methoxy-4-(1H-pyrazol-4-yl)phenyl)-1H-tetrazol-5(4H)-one]
7.30 to 8.30 | COc1cccc(Cn2nnn(-c3ccc(-c4cn[nH]c4)c(OC)c3)c2=O)c1 [Example 187, 1-(3-methoxy-4-(1H-pyrazol-4-yl)phenyl)-4-(3-methoxybenzyl)-1H-tetrazol-5(4H)-one]

System: IL-1 beta-induced coronary stenosis
Assay: not given
Conditions: long term treatment, porcine model; cited from earlier work

SMILES | coronary constrictive remodeling | coronary stenosis
O=S(=O)(c1cccc2cnccc12)N1CCCNCC1 [fasudil] | promote a regression | progressively reduce coronary stenosis

From patent publication US10562887B2, “Triazolones and tetrazolones as inhibitors of ROCK” (BRISTOL-MYERS SQUIBB COMPANY, priority 2016, dated 2020)
